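Where inhibition never reached the appropriate level, the endpoint shown equals the highest concentration tested. Otherwise, values were interpolated linearly from a five-concentration, 48-hour dose response in 96-well plates. The concentration for 50% growth inhibition is given as GI50. TGI is the concentration that stops growth completely.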 Where a SMILES comes first, the peptide text is derived from it.
How the values were obtained:
Assay in all cases: NCI-60 cell line screen, 48 h
786-0 renal = system: 786-0 renal
PC-3 prostate = system: PC-3 prostate
U251 CNS = system: U251 CNS
A549 NSCLC = system: A549 NSCLC
OVCAR-3 ovarian = system: OVCAR-3 ovarian
HT29 colon = system: HT29 colon
SK-MEL-2 melanoma = system: SK-MEL-2 melanoma
KM12 colon = system: KM12 colon
K-562 leukemia = system: K-562 leukemia
OVCAR-4 ovarian = system: OVCAR-4 ovarian
BT-549 breast = system: BT-549 breast
A498 renal = system: A498 renal
MDA-MB-231 breast = system: MDA-MB-231 breast

Structure (SMILES)	TGI (786-0 renal) [µM]	TGI (PC-3 prostate) [µM]	TGI (U251 CNS) [µM]	TGI (A549 NSCLC) [µM]	TGI (OVCAR-3 ovarian) [µM]	TGI (HT29 colon) [µM]	TGI (SK-MEL-2 melanoma) [µM]	TGI (KM12 colon) [µM]	TGI (K-562 leukemia) [µM]	TGI (OVCAR-4 ovarian) [µM]	TGI (BT-549 breast) [µM]	TGI (A498 renal) [µM]	TGI (MDA-MB-231 breast) [µM]	GI50 (SK-MEL-2 melanoma) [µM]	GI50 (K-562 leukemia) [µM]
Cc1cn(C2CC(ON3C(=O)c4ccccc4C3=O)C(CO)O2)c(=O)[nH]c1=O (stereo not drawn)	> 10	> 10	> 10	> 10	> 10	> 10	> 10	> 10	> 10	> 10	> 10	–	–	–	–
CC1(C#N)CC(C)(C)C(/C=C2/CC(C)(C)C(/C=C3/OC(=N)CC3(C)C)=N2)=N1 (stereo not drawn)	62.6	> 100	> 100	> 100	45.8	> 100	> 100	56.2	78.1	43.7	–	37.8	> 100	–	–
Clc1ccc(-c2c(C3=NCCN3)nnn2-c2ccc(Cl)cc2)cc1	58.4	–	45.2	> 100	> 100	36.2	26.1	56.3	35.9	> 100	–	38.4	–	–	–
COC(=O)C(=C/c1ccc(OC)cc1)/C(C(=O)O)=C(/C)c1ccccc1	> 100	–	> 100	> 100	> 100	> 100	> 100	> 100	> 100	> 100	–	> 100	–	–	–
CC(=O)N(C(=O)CC(=O)N/N=C\c1ccc(Br)c(N(CCC#N)CCC#N)c1)c1ccc(Cl)cc1	> 100	> 100	> 100	> 100	> 100	–	–	> 100	> 100	–	> 100	> 100	> 100	–	–
CCC(C)C(NC(=O)C(CCCCN)NC(=O)C(NC(=O)C(CCC(N)=O)NC(=O)C(N)CCCNC(=N)N)C(C)CC)C(=O)NC(Cc1c[nH]c2ccccc12)C(=O)NC(Cc1ccccc1)C(=O)NC(CCC(N)=O)C(=O)NC(CC(N)=O)C(=O)NC(CCCNC(=N)N)C(=O)NC(CCCNC(=N)N)C(=O)NC(CCSC)C(=O)NC(CCCCN)C(=O)NC(Cc1c[nH]c2ccccc12)C(=O)NC(CCCCN)C(=O)NC(CCCCN)C(=O)N1CCCC1C(=O)NC(C)C(=O)NC(CCCCN)C(=O)NC(CCCNC(=N)N)C(=O)NC(CCCCN)C(=O)NC(CC(C)C)C(=O)NC(Cc1ccccc1)C(=O)NCC(=O)O (stereo not drawn) (H-RQIKIWFQNRRMKWKKPAKRKLFG-OH; configuration not given here)	> 25	> 25	> 25	> 25	> 25	> 25	> 25	> 25	> 25	> 25	> 25	–	> 25	–	–
CC(=O)Oc1ccccc1-c1cc2ccccc2oc1=O	> 100	> 100	–	> 100	> 100	> 100	> 100	> 100	> 100	–	> 100	> 100	> 100	–	–
CC1=NC(=Cc2ccc(O)cc2)C(=O)N1n1c(-c2ccccc2)nc2ccccc2c1=O	> 100	> 100	–	> 100	–	> 100	–	> 100	> 100	–	> 100	> 100	> 100	–	–
COC(=O)C1=C(C)NC(C)=C(C(=O)OC)C1c1ccc(/[N+]([O-])=C/c2ccccc2)cc1	33.3	> 100	> 100	> 100	34.4	> 100	> 100	> 100	> 100	32.6	40.1	–	> 100	–	–
CCCCCC(C[N+]1(C)CCOCC1)C(=O)/C=C/c1ccccc1 (stereo not drawn)	4.26	–	21.2	62	27.4	10.3	29.5	8.71	18	15.9	–	31.7	–	–	–
O=C(C[n+]1ccccc1)NNC(=O)/C(=C/c1ccc2c(c1)OCO2)NC(=O)c1ccccc1	> 90.7	–	> 76.5	> 100	> 100	> 100	> 100	> 100	> 100	> 94.5	–	> 100	–	–	–
CSC1=C(SC)SC(=C2SC3=C(SC(=C4SCCS4)S3)S2)S1	> 100	> 100	> 100	> 100	> 100	> 100	> 100	> 100	–	> 100	> 100	–	> 100	–	–
C=CCn1c(=O)n(CC=C)c(=O)n(CC=C)c1=O	> 100	–	> 100	> 100	> 100	–	> 100	> 100	> 100	–	–	> 100	–	–	–
O=[N+]([O-])c1ccc(-n2nnc(C3=NCCCN3)c2-c2ccc(Cl)cc2)cc1	> 100	–	> 100	> 100	> 100	> 100	> 100	> 100	> 100	> 100	–	> 100	–	–	–
NS(=O)(=O)c1ccc(-n2c(-c3cccs3)nc3ccc(I)cc3c2=O)cc1	77.8	81.9	48.8	41.5	35.1	94.1	47.6	59.3	> 100	86.3	37.9	–	–	21.8	37.2
O=C1c2cc3c(cc2CC12Cc1cc4c(cc1C2=O)CCC4)CCCC3 (stereo not drawn)	> 100	> 100	> 100	> 100	> 100	> 100	> 100	–	> 100	> 100	–	> 100	> 100	–	–
Nc1ccc(C(=O)NN2C(=O)C(Cl)C2c2ccccc2Cl)cc1 (stereo not drawn)	3.35	–	24.7	27.8	26.9	23.5	24.5	24.5	–	27.1	–	–	–	–	–
CCN(CC)/C(Cl)=C(Cl)\C(=C1\Nc2ccc(OC)cc21)[N+](=O)[O-]	> 100	> 100	> 100	> 100	57.3	> 100	–	> 100	> 100	> 100	> 100	> 100	> 100	–	–
O=c1[nH]cc(COCC(F)(F)C(F)(F)C(F)(F)C(F)F)c(=O)[nH]1	> 100	–	> 100	> 100	> 100	> 100	> 100	> 100	> 100	–	–	–	–	–	–

Reference: PubChem BioAssay (NCI)
